Reference: patent publication US9963456B2, “Pyrrolopyrimidine compound or salt thereof and compositions containing the pyrrolopyrimidine compound or salt thereof” (TAIHO PHARMACEUTICAL CO., LTD., priority 2014, dated 2018)

How the values were obtained:
carbonic anhydrase II = carbonic anhydrase II (Homo sapiens (Human), UniProt P00918); assay: Carbonic anhydrase II enzyme activity inhibition (4-NPA esterase activity); assay type: biochemical; conditions: 4-nitrophenyl acetate esterase activity, absorbance at 405 nm
[1] = target: NAE (heterodimer of APPBP1 and UBA3) (Homo sapiens (Human), UniProt Q8TBC4); assay: Nedd8 conjugation inhibitory activity (AlphaScreen assay); assay type: biochemical; conditions: purified NAE, GST-UBC12, Biotin-Nedd8, ATP
Sequence of NAE (heterodimer of APPBP1 and UBA3) (Q8TBC4 whole entry): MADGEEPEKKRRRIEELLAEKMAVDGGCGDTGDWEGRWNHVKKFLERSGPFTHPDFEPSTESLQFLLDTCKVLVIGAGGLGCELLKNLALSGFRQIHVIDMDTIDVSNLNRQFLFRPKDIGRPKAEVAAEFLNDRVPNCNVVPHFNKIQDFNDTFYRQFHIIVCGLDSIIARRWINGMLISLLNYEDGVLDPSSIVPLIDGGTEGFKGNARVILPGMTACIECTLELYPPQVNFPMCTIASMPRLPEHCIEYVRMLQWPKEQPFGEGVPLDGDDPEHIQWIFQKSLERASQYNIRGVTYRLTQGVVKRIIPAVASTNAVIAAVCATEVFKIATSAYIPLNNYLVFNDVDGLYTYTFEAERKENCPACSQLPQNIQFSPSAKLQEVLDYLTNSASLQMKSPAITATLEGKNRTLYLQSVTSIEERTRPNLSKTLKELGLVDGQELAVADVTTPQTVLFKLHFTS
Sequence of NAE (heterodimer of APPBP1 and UBA3) (Q13564 whole entry partner): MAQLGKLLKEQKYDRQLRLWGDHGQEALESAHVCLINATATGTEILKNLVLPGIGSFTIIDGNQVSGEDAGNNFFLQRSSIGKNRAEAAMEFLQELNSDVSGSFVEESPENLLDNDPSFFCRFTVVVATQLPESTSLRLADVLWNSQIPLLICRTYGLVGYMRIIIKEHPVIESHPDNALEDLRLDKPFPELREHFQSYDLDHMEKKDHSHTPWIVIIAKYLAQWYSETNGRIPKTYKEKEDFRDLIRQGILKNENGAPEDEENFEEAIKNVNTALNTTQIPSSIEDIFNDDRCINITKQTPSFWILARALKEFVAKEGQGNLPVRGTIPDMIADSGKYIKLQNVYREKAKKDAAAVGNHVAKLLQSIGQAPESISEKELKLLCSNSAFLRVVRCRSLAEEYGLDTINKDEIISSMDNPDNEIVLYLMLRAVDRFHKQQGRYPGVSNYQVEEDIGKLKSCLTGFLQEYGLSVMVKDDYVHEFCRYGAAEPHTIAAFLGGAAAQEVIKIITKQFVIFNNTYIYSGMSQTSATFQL

[2] = system: human acute lymphoblastic leukemia (ALL) CCRF-CEM cell lines; assay: Antitumor effect on tumor cells transplanted into mice 3; assay type: in vivo; conditions: for change of the body weight compared with the control: CCRF-CEM xenograft mice
Description: The length and the width of the implanted tumor and the body weight were measured. The tumor volume (TV) was calculated using the following equation (equation D). TV(mm3)=(length×width^2)/2, wherein the unit of length and width is mm (equation D).
Thereafter, the length and the width of the tumor and the body weight (BWn) on day n were measured over time in the same manner, and the TVn of each mouse was calculated. Further, the relative tumor volume (RTVn) was calculated based on the TVn of each mouse using the following equation (equation E); the treatment/control (T/C) value (%) was calculated based on the mean RTVn of each drug administration group using the following equation (equation F); and the weight change rate (BWCn) was calculated using the following equation (equation G). RTVn=TVn/TV1 (equation E) T/Cn(%)=(mean RTV of each drug administration group on the last day of the test)/(mean RTV of the control group on the last day of the test)×100 (equation F) BWCn (%)=(BWn−BW1)/BW1×100 (equation G) FIGS. 1 and 2, and Table 21 below show the results.
The tumor growth inhibitory effects on human tumors were evaluated as in Test Example 5, except that the compound hydrochloride obtained in Example 122, the compound hydrochloride (Example 64), and human acute lymphoblastic leukemia (ALL) CCRF-CEM cell lines were used, and the animals were assigned to each group in accordance with a stratified randomization procedure when the TV reached 140 to 380 mm3.
At this time, the cell lines were washed in PBS, and suspended in 50% PBS and 50% Matrigel basement membrane matrix (#356237; produced by BD Biosciences) at a concentration of 1×10^8 cells/mL. 0.1 mL of this cell suspension was subcutaneously implanted to the right chest of 6-week-old BALB/cAJcl-nu/nu mice (nude mice) (produced by CLEA Japan, Inc.). The compound hydrochloride (Example 122) was intravenously administered in an amount of 5 mL per 1 kg of body weight on days 1 and 8, and the compound hydrochloride (Example 133) was intravenously administered in an amount of 5 mL per 1 kg of body weight on days 1 and 8.

[3] = CCRF-CEM xenograft in nude mice, compound hydrochlorides intravenously, Dunnett's test

SMILES | IC50 (carbonic anhydrase II) [µM] | IC50 [1] [µM] | also measured
Cc1ccccc1-c1nc(-c2cn([C@@H]3O[C@H](CNS(N)(=O)=O)[C@@H](O)[C@H]3O)c3ncnc(N)c23)cs1 [Example 2, 4-[4-Amino-7-[(2R,3R,4S,5R)-3,4-dihydroxy-5-[(sulfamoylamino)methyl]tetrahydrofuran-2-yl]pyrrolo[2,3-d]pyrimidin-5-yl]-2-(o-tolyl)thiazole] | > 1 | 0.0071 | –
Nc1ncnc2c1c(C#CC1(c3ccccc3)CC1)cn2[C@@H]1O[C@H](CNS(N)(=O)=O)[C@@H](O)[C@H]1O [Example 10, 4-Amino-7-[(2R,3R,4S,5R)-3,4-dihydroxy-5-[(sulfamoylamino)methyl]tetrahydrofuran-2-yl]-5-[2-(1-phenylcyclopropyl)ethynyl]pyrrolo[2,3-d]pyrimidine] | > 1 | 0.024 | –
Nc1ncnc2c1c(C#Cc1ccccc1OC(F)(F)F)cn2[C@@H]1O[C@H](CNS(N)(=O)=O)[C@@H](O)[C@H]1O [Example 14, 4-Amino-7-[(2R,3R,4S,5R)-3,4-dihydroxy-5-[(sulfamoylamino)methyl]tetrahydrofuran-2-yl]-5-[2-[2-(trifluoromethoxy)phenyl]ethynyl]pyrrolo[2,3-d]pyrimidine] | > 1 | – | –
CNc1cc(F)c(C#Cc2cn([C@@H]3O[C@H](CNS(N)(=O)=O)[C@@H](O)[C@H]3O)c3ncnc(N)c23)c(F)c1 [Example 25, 4-Amino-5-[2-[2,6-difluoro-4-(methylamino)phenyl]ethynyl]-7-[(2R,3R,4S,5R)-3,4-dihydroxy-5-[(sulfamoylamino)methyl]tetrahydrofuran-2-yl]pyrrolo[2,3-d]pyrimidine] | > 1 | 0.0048 | –
Nc1ncnc2c1c(C#Cc1c(F)cc(N3CC[C@@H](F)C3)cc1F)cn2[C@@H]1O[C@H](CNS(N)(=O)=O)[C@@H](O)[C@H]1O [Example 29, 4-Amino-5-[2-[2,6-difluoro-4-[(3R)-3-fluoropyrrolidin-1-yl]phenyl]ethynyl]-7-[(2R,3R,4S,5R)-3,4-dihydroxy-5-[(sulfamoylamino)methyl]tetrahydrofuran-2-yl]pyrrolo[2,3-d]pyrimidine] | > 1 | 0.0071 | –
Nc1ncnc2c1c(C#CCc1ccccc1F)cn2[C@@H]1O[C@H](CNS(N)(=O)=O)[C@@H](O)[C@H]1O [Example 36, 4-Amino-7-[(2R,3R,4S,5R)-3,4-dihydroxy-5-[(sulfamoylamino)methyl]tetrahydrofuran-2-yl]-5-[3-(2-fluorophenyl)prop-1-ynyl]pyrrolo[2,3-d]pyrimidine] | > 1 | – | –
Nc1ncnc2c1c(C#Cc1c(F)cc(N3CC(O)C3)cc1F)cn2[C@@H]1O[C@H](CNS(N)(=O)=O)[C@@H](O)[C@H]1O [Example 39, 4-Amino-5-[2-[2,6-difluoro-4-(3-hydroxyazetidin-1-yl)phenyl]ethynyl]-7-[(2R,3R,4S,5R)-3,4-dihydroxy-5-[(sulfamoylamino)methyl]tetrahydrofuran-2-yl]pyrrolo[2,3-d]pyrimidine] | > 1 | – | –
Nc1ncnc2c1c(C#Cc1c(F)cc(N3CCC3)cc1F)cn2[C@@H]1O[C@H](CNS(N)(=O)=O)[C@@H](O)[C@H]1O [Example 43, 4-amino-5-[2-[4-(azetidin-1-yl)-2,6-difluoro-phenyl]ethynyl]-7-[(2R,3R,4S,5R)-3,4-dihydroxy-5-[(sulfamoylamino)methyl]tetrahydrofuran-2-yl]pyrrolo[2,3-d]pyrimidine] | > 1 | 0.0076 | –
Nc1ncnc2c1c(C#Cc1ccccc1F)cn2[C@@H]1O[C@H](CNS(N)(=O)=O)[C@@H](O)[C@H]1O [Example 46, 4-Amino-7-[(2R,3R,4S,5R)-3,4-dihydroxy-5-[(sulfamoylamino)methyl]tetrahydrofuran-2-yl]-5-[2-(2-fluorophenyl)ethynyl]pyrrolo[2,3-d]pyrimidine] | > 1 | 0.013 | –
COc1ccccc1C#Cc1cn([C@@H]2O[C@H](CNS(N)(=O)=O)[C@@H](O)[C@H]2O)c2ncnc(N)c12 [Example 47, 4-Amino-7-[(2R,3R,4S,5R)-3,4-dihydroxy-5-[(sulfamoylamino)methyl]tetrahydrofuran-2-yl]-5-[2-(2-methoxyphenyl)ethynyl]pyrrolo[2,3-d]pyrimidine] | > 1 | 0.0093 | –
Nc1ncnc2c1c(C#CCC1CCCCC1)cn2[C@@H]1O[C@H](CNS(N)(=O)=O)[C@@H](O)[C@H]1O [Example 50, 4-Amino-5-(3-cyclohexylprop-1-ynyl)-7-[(2R,3R,4S,5R)-3,4-dihydroxy-5-[(sulfamoylamino)methyl]tetrahydrofuran-2-yl]pyrrolo[2,3-d]pyrimidine] | > 1 | – | –
Nc1ncnc2c1c(C#Cc1ccc(OCc3ccccc3)cn1)cn2[C@@H]1O[C@H](CNS(N)(=O)=O)[C@@H](O)[C@H]1O [Example 52, 4-Amino-5-[2-(5-benzyloxy-2-pyridyl)ethynyl]-7-[(2R,3R,4S,5R)-3,4-dihydroxy-5-[(sulfamoylamino)methyl]tetrahydrofuran-2-yl]pyrrolo[2,3-d]pyrimidine] | > 1 | 0.008 | –
CCCOc1cccc(F)c1C#Cc1cn([C@@H]2O[C@H](CNS(N)(=O)=O)[C@@H](O)[C@H]2O)c2ncnc(N)c12 [Example 60, 4-Amino-7-[(2R,3R,4S,5R)-3,4-dihydroxy-5-[(sulfamoylamino)methyl]tetrahydrofuran-2-yl]-5-[2-(2-fluoro-6-propoxy-phenyl)ethynyl]pyrrolo[2,3-d]pyrimidine] | > 1 | 0.0085 | –
CN1CCOc2c1ccc(F)c2C#Cc1cn([C@@H]2O[C@H](CNS(N)(=O)=O)[C@@H](O)[C@H]2O)c2ncnc(N)c12 [Example 64, 8-[2-[4-Amino-7-[(2R,3R,4S,5R)-3,4-dihydroxy-5-[(sulfamoylamino)methyl]tetrahydrofuran-2-yl]pyrrolo[2,3-d]pyrimidin-5-yl]ethynyl]-7-fluoro-4-methyl-2,3-dihydro-1,4-benzoxazine] | > 1 | 0.0094 | T/C15 ([2]; CCRF-CEM xenograft in nude mice, 50 mg/kg/day intravenous, administration days 1, 8, day 15): 8%; RTV comparison with the Comparative Example [2, 3]: significantly lower than that of the Comparative Example; RTV comparison with the control on day 15 [2, 3]: significantly lower than that of the control; BWC15 Mean ± SD ([2]; body weight change rate, CCRF-CEM xenograft in nude mice, 50 mg/kg/day intravenous, days 1, 8, day 15): 4.1 ± 1.6%
CCSc1cccc(F)c1C#Cc1cn([C@@H]2O[C@H](CNS(N)(=O)=O)[C@@H](O)[C@H]2O)c2ncnc(N)c12 [Example 66, 4-Amino-7-[(2R,3R,4S,5R)-3,4-dihydroxy-5-[(sulfamoylamino)methyl]tetrahydrofuran-2-yl]-5-[2-(2-ethylsulfanyl-6-fluoro-phenyl)ethynyl]pyrrolo[2,3-d]pyrimidine] | > 1 | 0.0071 | –
Nc1ncnc2c1c(C#Cc1c(F)cc(N3CC[C@@H](O)C3)cc1F)cn2[C@@H]1C[C@H](CNS(N)(=O)=O)[C@@H](O)[C@H]1O [Example 120, 4-Amino-5-[2-[2,6-difluoro-4-[(3R)-3-hydroxypyrrolidin-1-yl]phenyl]ethynyl]-7-[(1R,2S,3R,4R)-2,3-dihydroxy-4-[(sulfamoylamino)methyl]cyclopentyl]pyrrolo[2,3-d]pyrimidine] | > 1 | 0.0043 | RTV comparison with the control on day 15 [2, 3]: significantly lower than that of the control; change of the body weight compared with the control [2]: almost the same as that of the control
CCOc1cccc(F)c1C#Cc1cn([C@@H]2C=C(CNS(N)(=O)=O)[C@@H](O)[C@H]2O)c2ncnc(N)c12 [Example 129, 4-Amino-7-[(1R,4R,5S)-4,5-dihydroxy-3-[(sulfamoylamino)methyl]cyclopent-2-en-1-yl]-5-[2-(2-ethoxy-6-fluoro-phenyl)ethynyl]pyrrolo[2,3-d]pyrimidine] | > 1 | – | –
Nc1ncnc2c1c(C#Cc1cccc3ccccc13)cn2[C@@H]1O[C@H](COS(N)(=O)=O)[C@@H](O)[C@H]1O [Example 133, [(2R,3S,4R,5R)-5-[4-Amino-5-[2-(1-naphthyl)ethynyl]pyrrolo[2,3-d]pyrimidin-7-yl]-3,4-dihydroxy-tetrahydrofuran-2-yl]methyl sulfamate] | – | 0.025 | RTV comparison with the control on day 15 [2, 3]: significantly lower than that of the control; change of the body weight compared with the control [2]: almost the same as that of the control
CCS(=O)(=O)c1cccc(F)c1C#Cc1cn([C@H]2C[C@H](O)[C@@H](CNS(N)(=O)=O)O2)c2ncnc(N)c12 [Example 143, 4-Amino-5-[2-(2-ethylsulfonyl-6-fluoro-phenyl)ethynyl]-7-[(2R,4S,5R)-4-hydroxy-5-[(sulfamoylamino)methyl]tetrahydrofuran-2-yl]pyrrolo[2,3-d]pyrimidine] | > 1 | 0.024 | –
